# Laboratory results reported in patent US12570984B2, “DNA aptamer specifically binding to glutathione and use thereof” (Nexmos Co., LTD, priority 2020, dated 2026).
# Key:
# tyrosinase [1] = biological target: T1, tyrosinase (Homo sapiens, UniProt P14679); assay: Whitening efficacy test, in vitro cell-based tyrosinase activity (MNT-1 cells); settings: 72 hours, final 100 μM GSH, 1 μM Apt G, 0.01% arbutin, L-DOPA, absorbance 475 nm
# T1 sequence (P14679 19-529): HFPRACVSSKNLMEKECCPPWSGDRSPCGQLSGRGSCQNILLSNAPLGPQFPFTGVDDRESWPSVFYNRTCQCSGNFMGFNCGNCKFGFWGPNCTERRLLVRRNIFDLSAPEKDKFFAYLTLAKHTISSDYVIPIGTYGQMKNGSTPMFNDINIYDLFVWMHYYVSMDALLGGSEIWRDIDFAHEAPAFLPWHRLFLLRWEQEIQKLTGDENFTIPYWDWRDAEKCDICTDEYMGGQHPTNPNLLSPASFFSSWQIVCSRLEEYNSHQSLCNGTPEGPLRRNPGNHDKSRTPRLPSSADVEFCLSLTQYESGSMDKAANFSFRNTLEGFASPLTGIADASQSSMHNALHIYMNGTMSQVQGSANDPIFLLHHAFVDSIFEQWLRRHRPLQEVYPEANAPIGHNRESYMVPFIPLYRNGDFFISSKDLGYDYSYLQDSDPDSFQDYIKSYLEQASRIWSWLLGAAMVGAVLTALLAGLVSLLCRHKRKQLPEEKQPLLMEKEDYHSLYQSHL
# Experimental: The final concentration of each component in this experiment was 100 μM GSH, 1 μM Apt G, 0.01% arbutin,
# 100 μM GSH and 1 μM of the prepared aptamer (molar concentration of 100:1) were added to the media and reacted at room temperature for 30 minutes.
# MNT-1 cells were seeded on a 6-well plate and incubated for 24 hours at 37° C., 5% CO2 incubator.
# After treating each of the prepared samples, the samples were again incubated at 37° C. and 5% CO2 incubator for 72 hours.
# After incubation, ice-cold lysis buffer (RIPA buf.+ protease inhibitor) was used to remove the cells from the plate, and the removed cells were transferred to an EP-tube and centrifuged to remove only the supernatant.
# Lysate, L-DOPA, potassium phosphate buffer (pH6.5) was added to a 96 well plate and mixed (each test group used the same amount of protein through protein quantification).
# After incubation for 1 hour at 37° C., 5% CO2 incubator, absorbance was measured at 475 nm using a plate reader.
# [2] = Antioxidant efficacy test, DTNB assay (sulfhydryl group determination) of GSH stored at 37° C.; settings: day 16, storage at 37° C.; final 125 μM GSH, 1.25 μM aptamin G; n=5
# Experimental: In this experiment, the final concentration of each component was 125 μM GSH and 1.25 μM aptamin G.
# The prepared aptamer (100:1) of the prepared aptamer (100:1) of 250 μM GSH and 2.5 μM was dissolved in the 3th distilled water for 30 minutes at room temperature.
# The above GSH-Aptamin G complex was stored for a certain period of time under severe conditions (37° C.), and samples were obtained every 4 days and measured for 16 days.
# Just before the sample measurement, 10 mm DTNB (4 mg/ml, buffer: 0.1 M potassium Phosphate buffer, pH 8.0) was prepared to mix the sample (50 μL) of DTNB solution and shaking incubation.
# After the reaction, the UV Absorbance value was measured at 412 nm and REF wavelength 605 nm using the Plate Reader.
# tyrosinase [3] = settings: final 20 μM GSH; 37° C. 10 minutes; absorbance 490 nm; N=5
# Experimental: The final concentrations of each component in this experiment were 20 μM GSH, 0.2 μM Apt G, and 0.01% arbutin.
# 300 μM GSH and 3 μM of the prepared aptamer (molar concentration of 100:1) were dissolved in tertiary distilled water and reacted at room temperature for 30 minutes.
# In a 96 well plate, 200 μL of 0.1 M potassium phosphate buffer (pH6.5), 20 μL of sample, 20 μL of 2 KU/mL tyrosinase, and 60 μL of 1.0 mM tyrosine were sequentially added and reacted at 37° C. for 10 minutes.
# After the reaction, absorbance was measured at 490 nm using a plate reader.
smiles,measurement,setting,value
OC[C@H]1O[C@@H](Oc2ccc(O)cc2)[C@H](O)[C@@H](O)[C@@H]1O [Arbutin],inhibition of tyrosinase activity (cell test),tyrosinase [1],about 25%
"N[C@@H](CCC(=O)N[C@@H](CS)C(=O)NCC(=O)O)C(=O)O [GSH, Glutathione]",inhibition of tyrosinase activity (cell test),tyrosinase [1],tendency not to inhibit the activity of tyrosinase
same,amount of GSH remaining unoxidized,[2],about 60%
same,inhibition of the activity of tyrosinase,tyrosinase [3],about 75%
